The source of these data is US20240417411A1, “COMPOUNDS AND METHODS FOR TREATMENT OF VIRAL INFECTIONS” (priority 2023, published 2024).

As usually defined, the EC50 is the midpoint of the concentration-response curve. The term half-life denotes the time needed for the level to fall by half in the phase considered. A higher half-life goes with slow loss. The term CC50 denotes the concentration giving 50% cytotoxicity. A high value points to better tolerance by the cells.

Series [1] concerns SARS-CoV2-NLuc. As to the kind of experiment: microbe, parasite or virus in culture. The format is cell-based, SARS Coronavirus 2. The following applies: Severe acute respiratory syndrome coronavirus 2, 48 h, read-out: SARS-CoV2 EC50 (nM).
Series [2] in a line: in vitro. To be noted: human, plasma.
Series [3] in a line: in vitro. The format is cell-based. The following applies: human. The procedure: Example C: CC50 MT4 Cytotoxicity of the compounds was determined in uninfected cells using the cell viability reagent in a similar fashion as described before for other cell types ([…] et al., Antimicrob Agents Chemother. 2008,52(2):655-65). […] Cells were cultured for 4-5 days at 37° C. Following the incubation, the cells were allowed to equilibrate to 25° C., and cell viability was determined by adding Cell-Titer Glo viability reagent. The mixture was incubated for 10 min, and the luminescence signal was quantified using an Envision plate reader. Untreated cell and cells treated at 2 μM puromycin (Sigma, St. Louis, MO) serve as 100% and 0% cell viability control, respectively. The percent of cell viability was calculated for each tested compound concentration relative to the 0% and 100% controls and the CC50 value was determined by non-linear regression as a compound concentration reducing the cell viability by 50%.

In series [4] the test system is RSV-Luc5. As to the kind of experiment: microbe, parasite or virus in culture. The format is cell-based. The following applies: human respiratory syncytial virus, NHBE, 72 h, read-out: RSV NHBE EC50 (nM).
Series [5] in a line: in vitro. The format is in vitro ADME. To be noted: human, s9, pH 7.4. The procedure:
Example D: GI S9 Stability […] The S9 metabolic reactions were initiated by the addition of the substrates to the S9 reaction mixture to a final concentration of 2 μM. […] Aliquots ([…]) of the diluted supernatant were analyzed on a Thermo Q-Exactive mass spectrometer as described below. Example F: Liquid Chromatography/Mass Spectroscopy Methods for S9 and Plasma Stability Quantification of test compounds, Reference Compound A (S9 stability assay nucleoside metabolite), and controls was performed by analyte/internal standard peak area ratio (PAR) values measured on a Thermo Q-Exactive mass spectrometer coupled to a Dionex UltiMate 3000 HPLC with a Leap Technologies HTC PAL autosampler. […] Mobile phase A consisted of 0.1% (v/v) formic acid in water. Mobile phase B consisted of 0.1% (v/v) formic acid in acetonitrile. Elution of analytes was achieved by a series of linear gradients of acetonitrile in water containing 0.10% (v/v) formic acid. The mass spectrometer was calibrated on a weekly basis and mass tolerance of 5 ppm was used.

Series [6] deals with Caco-2 cells (clone C2BBe1). The following applies: human, Caco-2.

On to `CC(C)[C@H](N)C(=O)OC[C@H]1O[C@@](C#N)(c2ccc3c(N)ncnn23)[C@@H]2OC(=O)CCCC(=O)O[C@@H]21` [Compound C59, ((7aR,8R,10R,10aR)-10-(4-aminopyrrolo[2,1-f][1,2,4]triazin-7-yl)-10-cyano-2,6-dioxooctahydro-2H-furo[3,4-b][1,4]dioxonin-8-yl)methyl L-valinate], for which the EC50 amounted to 6830 nM in series [1] and 5970 nM in series [4]. Also, the half-life at 2 μM worked out at 18.5 min in series [2] and 0.586 min in series [5]. This compound also had a 50% cytotoxic concentration (CC50) in series [3] of over 50 µM.

Consider `CC(C)(OC(=O)OC[C@H]1O[C@@](C#N)(c2ccc3c(N)ncnn23)[C@@H]2OC(=O)CCCC(=O)O[C@@H]21)C(F)F` [Compound C25, ((7aR,8R,10R,10aR)-10-(4-aminopyrrolo[2,1-f][1,2,4]triazin-7-yl)-10-cyano-2,6-dioxooctahydro-2H-furo[3,4-b][1,4]dioxonin-8-yl)methyl (1,1-difluoro-2-methylpropan-2-yl) carbonate], for which the EC50 in series [1] amounted to 34300 nM; in series [4] it was 6460 nM. Also, the half-life at 2 μM in series [2] was 11.9 min; in series [5], 0.559 min. In addition, the CC50 in series [3] is over 50 µM.

As for `N#C[C@@]1(c2ccc3c(N)ncnn23)O[C@H](COC(=O)OCCN2CCOCC2)[C@H]2OC(=O)CCCC(=O)O[C@H]21` [Compound C19, ((7aR,8R,10R,10aR)-10-(4-aminopyrrolo[2,1-f][1,2,4]triazin-7-yl)-10-cyano-2,6-dioxooctahydro-2H-furo[3,4-b][1,4]dioxonin-8-yl)methyl (2-morpholinoethyl) carbonate], the figures for the EC50 in series [1] and in series [4] were 4310 nM and 8620 nM, respectively. For the same compound, the results for the half-life at 2 μM in series [2] and in series [5] were 90.3 min and 0.552 min, respectively. In series [3], this compound yielded a CC50 of over 50 µM.

As to `CCOC(=O)[C@@H]1[C@H](OC(=O)OC[C@H]2O[C@@](C#N)(c3ccc4c(N)ncnn34)[C@@H]3OC(=O)CCCC(=O)O[C@@H]32)CCN1C` [Compound C32, ethyl (2S,3R)-3-(((((7aR,8R,10R,10aR)-10-(4-aminopyrrolo[2,1-f][1,2,4]triazin-7-yl)-10-cyano-2,6-dioxooctahydro-2H-furo[3,4-b][1,4]dioxonin-8-yl)methoxy)carbonyl)oxy)-1-methylpyrrolidine-2-carboxylate], the EC50 in series [1] worked out at 4970 nM; in series [4], 7650 nM. The half-life at 2 μM in series [2] worked out at 30.9 min; in series [5], 0.566 min. The same compound came in with a CC50 in series [3] of over 50 µM.

Regarding `CC(C)(C)COC(=O)OC[C@H]1O[C@@](C#N)(c2ccc3c(N)ncnn23)[C@@H]2OC(=O)CCCC(=O)O[C@@H]21` [Compound C29, ((7aR,8R,10R,10aR)-10-(4-aminopyrrolo[2,1-f][1,2,4]triazin-7-yl)-10-cyano-2,6-dioxooctahydro-2H-furo[3,4-b][1,4]dioxonin-8-yl)methyl neopentyl carbonate], the figures for the EC50 in series [1] and in series [4] were 2220 nM and 4660 nM, respectively. The half-life at 2 μM in series [2] was found to be 12.1 min; in series [5], 0.587 min. Further, the CC50 in series [3] was over 50 µM.

Regarding `CC1(C)CC(=O)O[C@H]2[C@@H](OC(=O)C1)[C@](C#N)(c1ccc3c(N)ncnn13)O[C@@H]2COC(=O)OC(CF)CF` [Compound C44, ((7aR,8R,10R,10aR)-10-(4-aminopyrrolo[2,1-f][1,2,4]triazin-7-yl)-10-cyano-4,4-dimethyl-2,6-dioxooctahydro-2H-furo[3,4-b][1,4]dioxonin-8-yl)methyl (1,3-difluoropropan-2-yl) carbonate], the EC50 in series [1] and in series [4] was over 50000 nM throughout. Further, the half-life at 2 μM worked out at 133 min in series [2] and 1.22 min in series [5]. In addition, the CC50 in series [3] was over 50 µM.

With `COC(=O)OC[C@H]1O[C@@](C#N)(c2ccc3c(N)ncnn23)[C@@H]2OC(=O)CC(C)(C)CC(=O)O[C@@H]21` [Compound C15, ((7aR,8R,10R,10aR)-10-(4-aminopyrrolo[2,1-f][1,2,4]triazin-7-yl)-10-cyano-4,4-dimethyl-2,6-dioxooctahydro-2H-furo[3,4-b][1,4]dioxonin-8-yl)methyl methyl carbonate], the EC50 in series [1] and in series [4] was over 50000 nM each time. The half-life at 2 μM in series [2] amounted to 16.1 min; in series [5], 6.22 min. For the same compound, the CC50 in series [3] is over 50 µM.

`N#C[C@@]1(c2ccc3c(N)ncnn23)O[C@H](COC(=O)C2CCC2)[C@H]2OC(=O)CCCC(=O)O[C@H]21` [Compound C57, ((7aR,8R,10R,10aR)-10-(4-aminopyrrolo[2,1-f][1,2,4]triazin-7-yl)-10-cyano-2,6-dioxooctahydro-2H-furo[3,4-b][1,4]dioxonin-8-yl)methyl cyclobutanecarboxylate]: the figures for the EC50 in series [1] and in series [4] were 3000 nM and 3780 nM, respectively. Besides, in series [2], the half-life at 2 μM was 7.33 min. Besides, the CC50 in series [3] was over 50 µM.

For `CC1(C)CC(=O)O[C@H]2[C@@H](OC(=O)C1)[C@](C#N)(c1ccc3c(N)ncnn13)O[C@@H]2CO` [Compound C11, (7aR,8R,10R,10aR)-8-(4-aminopyrrolo[2,1-f][1,2,4]triazin-7-yl)-10-(hydroxymethyl)-4,4-dimethyl-2,6-dioxooctahydro-2H-furo[3,4-b][1,4]dioxonine-8-carbonitrile], the EC50 in series [1] and in series [4] was over 50000 nM throughout. Further, the results for the half-life at 2 μM in series [2] and in series [5] were 414 min and 24.3 min, respectively. Further, the CC50 in series [3] was over 50 µM.

Consider `CC(C)COC(=O)OC[C@H]1O[C@@](C#N)(c2ccc3c(N)ncnn23)[C@@H]2OC(=O)CC(C)(C)CC(=O)O[C@@H]21` [Compound C35, ((7aR,8R,10R,10aR)-10-(4-aminopyrrolo[2,1-f][1,2,4]triazin-7-yl)-10-cyano-4,4-dimethyl-2,6-dioxooctahydro-2H-furo[3,4-b][1,4]dioxonin-8-yl)methyl isobutyl carbonate], for which the EC50 in series [1] and in series [4] was over 50000 nM throughout. Besides, the half-life at 2 μM in series [2] came to 73.6 min; in series [5], 0.609 min. The compound further displayed a CC50 in series [3] of over 50 µM.

On to `CC1(C)CC(=O)O[C@H]2[C@@H](OC(=O)C1)[C@](C#N)(c1ccc3c(N)ncnn13)O[C@@H]2COC(=O)OC1CCCC1` [Compound C37, ((7aR,8R,10R,10aR)-10-(4-aminopyrrolo[2,1-f][1,2,4]triazin-7-yl)-10-cyano-4,4-dimethyl-2,6-dioxooctahydro-2H-furo[3,4-b][1,4]dioxonin-8-yl)methyl cyclopentyl carbonate], for which the EC50 in series [1] and in series [4] was over 50000 nM throughout. Further, the figures for the half-life at 2 μM in series [2] and in series [5] were 300 min and 5.15 min, respectively. Besides, the CC50 in series [3] is over 50 µM.

On to `CC(C)[C@H](NC(=O)OC(C)(C)C)C(=O)OC[C@H]1O[C@@](C#N)(c2ccc3c(N)ncnn23)[C@@H]2OC(=O)CCCC(=O)O[C@@H]21` [Compound C58, ((7aR,8R,10R,10aR)-10-(4-aminopyrrolo[2,1-f][1,2,4]triazin-7-yl)-10-cyano-2,6-dioxooctahydro-2H-furo[3,4-b][1,4]dioxonin-8-yl)methyl (tert-butoxycarbonyl)-L-valinate], for which the EC50 in series [1] was determined as 5120 nM; in series [4] it was 2840 nM. Further, the half-life at 2 μM in series [2] came to 26.4 min; in series [5], 0.577 min. The CC50 in series [3] is over 50 µM.

In the case of `CC(C)COC(=O)OC[C@H]1O[C@@](C#N)(c2ccc3c(N)ncnn23)[C@@H]2OC(=O)CCCC(=O)O[C@@H]21` [Compound C18, ((7aR,8R,10R,10aR)-10-(4-aminopyrrolo[2,1-f][1,2,4]triazin-7-yl)-10-cyano-2,6-dioxooctahydro-2H-furo[3,4-b][1,4]dioxonin-8-yl)methyl isobutyl carbonate], the EC50 was found to be 1780 nM in series [1] and 8490 nM in series [4]. For the same compound, the half-life at 2 μM was determined as 7.57 min in series [2] and 0.724 min in series [5]. In series [3], this compound had a CC50 of over 50 µM.

As to `COC(C)(C)COC(=O)OC[C@H]1O[C@@](C#N)(c2ccc3c(N)ncnn23)[C@@H]2OC(=O)CC(C)(C)CC(=O)O[C@@H]21` [Compound C39, ((7aR,8R,10R,10aR)-10-(4-aminopyrrolo[2,1-f][1,2,4]triazin-7-yl)-10-cyano-4,4-dimethyl-2,6-dioxooctahydro-2H-furo[3,4-b][1,4]dioxonin-8-yl)methyl (2-methoxy-2-methylpropyl) carbonate], the EC50 in series [1] is 8580 nM. The compound further came in with a CC50 in series [3] of over 50 µM. Moreover, in series [4], the EC50 was over 50000 nM. In series [5], this compound gave a half-life at 2 μM of 9.97 min. In series [6], the “Caco2 A to B” value is recorded as 2 and the “Caco2 B to A” value came out at 7.17.
